Assay results published in patent publication US8748625B2, “Crystalline forms of 3-[5-(2-fluorophenyl)-[1,2,4]oxadiazol-3-yl]-benzoic acid” (PTC Therapeutics, Inc., priority 2006, dated 2014).
“Also recorded” adds a separate entry of the source.

Tests used:
Type in all cases: physicochemical
[1] = Dynamic vapor sorption (DVS) hygroscopicity; conditions: for hygroscopicity: DVS isotherm
Description: Form A of 3-[5-(2-fluorophenyl)-[1,2,4]oxadiazol-3-yl]-benzoic acid was evaluated for hygroscopicity. Dynamic vapor sorption (DVS) analysis of moisture uptake and moisture release as a function of relative humidity (RH) were obtained upon cycling between 5% and 95% RH. […] Accordingly, in certain embodiments, Form A is non-hygroscopic.
Moisture sorption/desorption data were collected on a VTI SGA-100 Vapor Sorption Analyzer. Sorption and desorption data were collected over a range of 5% to 95% relative humidity (RH) at 10% RH intervals under a nitrogen purge. Samples were not dried prior to analysis. Equilibrium criteria used for analysis were less than 0.0100% weight change in 5 minutes, with a maximum equilibration time of 3 hours if the weight criterion was not met. Data were not corrected for the initial moisture content of the samples. NaCl and PVP were used as calibration standards.

[2] = Physical stability on slurrying in solvents
[3] = Physical stability on milling / micronization; conditions: for physical stability when milled: milled at ambient and at sub-ambient temperatures
[4] = Physical stability on storage at controlled relative humidity; conditions: stored 6 days
Description: 3-[5-(2-fluorophenyl)-[1,2,4]oxadiazol-3-yl]-benzoic acid (UNMEASURED QUANTITY; FORM B) was stressed in 75% relative humidity at 40° C. for six days.

[5] = Physical stability under compression

Structure (SMILES) | hygroscopicity [1] | maximum moisture uptake (DVS) ([1]; cycling between 5% and 95% RH) | physical stability when slurried ([2]; in 1-BuOH for 4 days at ambient temperature) | physical stability when slurried ([2]; in chloroform for 2 days at 50° C.) | physical stability when slurried ([2]; in dichloromethane for 2 days at 50° C.) | physical and chemical stability upon micronization ([3]; micronization (particle size reduction)) | physical stability when milled [3] | physical stability on storage ([4]; 50% RH at 60° C.) | physical stability on storage ([4]; 53% RH at 40° C.) | physical stability on storage ([4]; 75% RH at 40° C.) | physical stability on storage ([4]; 79% RH at 60° C.) | physical stability when slurried ([2]; 1 day at ambient temperature in a 1:1 mixture of THF and heptane) | physical stability when slurried ([2]; in a 1:1 mixture of dioxane and water) | physical stability when slurried ([2]; in methyl isobutyl ketone) | physical stability under compression ([5]; compression alone) | physical stability under compression ([5]; compression in the presence of a 1:1 mixture of t-BuOH and water)
O=C(O)c1cccc(-c2noc(-c3ccccc3F)n2)c1 [Form A, 3-[5-(2-fluorophenyl)-[1,2,4]oxadiazol-3-yl]-benzoic acid] | substantially non-hygroscopic | about 0.06 % of the total mass of the sample | physically stable | physically stable | physically stable | physically and chemically stable | physically stable | physically stable | physically stable | physically stable | physically stable | – | – | – | – | –
O=C(O)c1cccc(-c2noc(-c3ccccc3F)n2)c1 [Form B, 3-[5-(2-fluorophenyl)-[1,2,4]oxadiazol-3-yl]-benzoic acid] | substantially non-hygroscopic | – | – | – | – | – | conversion from Form B to Form A | physically stable | physically stable | physically stable; also recorded: characterized by XRPD as Form B | partial conversion to Form A | physically stable | conversion of Form B to Form A | conversion of Form B to Form A | physically stable | physically stable
